Data: patent US8968453B2, “Anthrapyridone sulfonic acid compounds and their preparation methods and applications” (Zhuhai Ninestar Management Co., Ltd., priority 2011, dated 2015)

Key:
Type in all cases: physicochemical
[1] = Gas (ozone) resistance of the printed images; conditions: grade of color difference ΔE; ink with 6 portions dye on glossy photo paper; 40 ppm ozone, 60% RH, 24° C.
Source text: Prepare the ink composition of Table 8 with the product obtained in Embodiment 1-11 as the coloring agent, and filter the ink composition with 0.45 μm membrane filter to obtain the magenta ink composition of the present invention. Add ion exchange water and triethanolamine to adjust the pH value of the ink composition to 8-10 and the weight to 100 portions. By the same methods, prepare ink compositions with control sulfonic-group-free anthrone dyes Dye1 and Dye2, hydrolytic derivatives of commercial dye C.I. reactive red 180 (reactive red 180 for short) and C.I. direct red 227 for comparison. Use an ink-jet printer (Epson 270 manufactured by Epson Company), glossy photo paper (Epson) and the above described ink compositions for ink-jet printing. (2) Gas Resistance of the Printed Images Place the printed images in the Ozone Weathering Test Chamber (manufactured by China Surui Company) at 60% RH, 24° C. and 40 ppm ozone. Calculated the color difference (ΔE) before and after the test by the same method as described in (1) above and evaluate it in 3 grades based on the following benchmark: • ΔE<10 ∘ • ΔE<20 Δ • ΔE>20 x

[2] = Printed images light resistance test with xenon lamp; conditions: grade of color difference ΔE; ink with 6 portions dye on glossy photo paper; xenon lamp 0.36 W/m^2, 50 h, 60% RH, 24° C.
Source text: (§1) Prepare the ink composition of Table 8 with the product obtained in Embodiment 1-11 as the coloring agent, and filter the ink composition with 0.45 μm membrane filter to obtain the magenta ink composition of the present invention. Add ion exchange water and triethanolamine to adjust the pH value of the ink composition to 8-10 and the weight to 100 portions. By the same methods, prepare ink compositions with control sulfonic-group-free anthrone dyes Dye1 and Dye2, hydrolytic derivatives of commercial dye C.I. reactive red 180 (reactive red 180 for short) and C.I. direct red 227 for comparison.
(§2) Use an ink-jet printer (Epson 270 manufactured by Epson Company), glossy photo paper (Epson) and the above described ink compositions for ink-jet printing.
(1) Printed Images Light Resistance Test with Xenon Lamp
Irradiate the printed glossy photo paper manufactured by Canon and Epson with Xenon-lamp Weathering Test Chamber ZG-P (manufactured by China Surui Company) at 60% RH and 24° C. with illuminance of 0.36 W/m^2 for 50 h to test the color difference (ΔE) before and after the test. The color difference (ΔE) is calculated from the differences of values of L*, a*, b* before and after the test in the above described color measurement system (Unterlab) by the followings formula: ΔE=((difference of L*)^2+(difference of a*)^2+(difference of b*)^2)^1/2.
Three grades will be divided for the evaluation based on the following benchmark: • ΔE<10 ∘ • ΔE<20 Δ • ΔE>20 x

[3] = Wet resistance of the printed images; set-up: key: No bleeding ∘; Slight bleeding Δ; Notable bleeding x; conditions: bleeding judged by bare eyes; 50° C., 90% RH, 168 h
Source text: as §1, §2
(3) Wet Resistance of the Printed Images
Place the printed images in the Constant Temperature and Humidity Chamber (manufactured by China Surui Company) at 50° C. and 90% RH for 168 h; judge the bleeding of the ink by bare eyes before and after the test and evaluate it in 3 grades based on the following benchmark: • No bleeding ∘ • Slight bleeding Δ • Notable bleeding x

[4] = Evaluation of solubility and solution stability; set-up: key: No precipitation ∘; Slight precipitation Δ; Notable x; conditions: 20 portions dye, 70 portions water, 10 portions ethylene glycol; 50° C. 7 d, then 0° C. 7 d; precipitation on filtering
Protocol: (D) Evaluation of Solubility and Solution Stability
Heat and dissolve the system of 20 portions of dyes, 70 portions of water and 10 portions of ethylene glycol; after the solution cools down, store it airtight at a constant temperature of 50° C. for 7 d; cool it down and store it at 0° C. for 7 d; filter the solution and evaluate it in 3 grades based on the following benchmark: • No precipitation ∘ • Slight precipitation Δ • Notable x

SMILES	Ozone resistance of printed images [1]	UV resistance of printed images [2]	Water resistance of printed images [3]	Solubility and stability of dyes in aqueous solvent system [4]
O=S(=O)([O-])c1cc(Nc2nc(Nc3ccc(/C=C/c4ccc(Nc5nc(Nc6cc(S(=O)(=O)[O-])cc7cc(S(=O)(=O)[O-])c(N=Nc8ccccc8)c(O)c67)nc(N6CCOCC6)n5)cc4S(=O)(=O)[O-])c(S(=O)(=O)[O-])c3)nc(N3CCOCC3)n2)c2c(O)c(N=Nc3ccccc3)c(S(=O)(=O)[O-])cc2c1.[Na+].[Na+].[Na+].[Na+].[Na+].[Na+] [C.I. direct red 227, reference compound]	x (ΔE>20 x)	x (ΔE>20 x)	Δ	Δ
CCN(CC)CCS(=O)(=O)c1ccc(S(=O)(=O)O)c(Nc2ccc3[nH]c(=O)c(C(=O)c4cccc(S(=O)(=O)O)c4)c4c3c2C(=O)c2ccccc2-4)c1 [Dye1, reference compound]	Δ (ΔE<20 Δ)	Δ (ΔE<20 Δ)	∘	Δ
CC(=O)Nc1cc(Nc2ccc3[nH]c(=O)c(C(=O)c4cccc(S(=O)(=O)O)c4)c4c3c2C(=O)c2ccccc2-4)c(S(=O)(=O)O)cc1S(=O)(=O)O [Dye2, reference compound]	Δ (ΔE<20 Δ)	Δ (ΔE<20 Δ)	∘	Δ
O=C(c1cccc(S(=O)(=O)O)c1)c1c2c3c(c(Nc4cc(S(=O)(=O)CCSCCCS(=O)(=O)O)ccc4S(=O)(=O)O)cc(S(=O)(=O)O)c3[nH]c1=O)C(=O)c1ccccc1-2 [Dye B1]	∘ (ΔE<10 ∘)	∘ (ΔE<10 ∘)	∘	∘
CCN(CC)CCS(=O)(=O)c1ccc(S(=O)(=O)O)c(Nc2cc(S(=O)(=O)O)c3[nH]c(=O)c(C(=O)c4cccc(S(=O)(=O)O)c4)c4c3c2C(=O)c2ccccc2-4)c1 [Dye B2]	∘ (ΔE<10 ∘)	∘ (ΔE<10 ∘)	∘	∘
O=C(c1cccc(S(=O)(=O)O)c1)c1c2c3c(c(Nc4cc(S(=O)(=O)CCSCCCS(=O)(=O)O)c(S(=O)(=O)O)cc4S(=O)(=O)O)cc(S(=O)(=O)O)c3[nH]c1=O)C(=O)c1ccccc1-2 [Dye B3]	∘ (ΔE<10 ∘)	∘ (ΔE<10 ∘)	∘	∘
CCN(CC)CCS(=O)(=O)c1cc(Nc2cc(S(=O)(=O)O)c3[nH]c(=O)c(C(=O)c4cccc(S(=O)(=O)O)c4)c4c3c2C(=O)c2ccccc2-4)c(S(=O)(=O)O)cc1S(=O)(=O)O [Dye B4]	∘ (ΔE<10 ∘)	∘ (ΔE<10 ∘)	∘	∘

Results, then the compound that gave them:

Ozone resistance of printed images [1]	UV resistance of printed images [2]	Water resistance of printed images [3]	Solubility and stability of dyes in aqueous solvent system [4]	SMILES
∘ (ΔE<10 ∘)	∘ (ΔE<10 ∘)	∘	∘	O=C(c1cccc(S(=O)(=O)O)c1)c1c2c3c(c(Nc4ccc(S(=O)(=O)O)cc4S(=O)(=O)O)cc(S(=O)(=O)O)c3[nH]c1=O)C(=O)c1ccccc1-2 [Dye C1]
∘ (ΔE<10 ∘)	∘ (ΔE<10 ∘)	∘	∘	CC(=O)Nc1cc(Nc2cc(S(=O)(=O)O)c3[nH]c(=O)c(C(=O)c4cccc(S(=O)(=O)O)c4)c4c3c2C(=O)c2ccccc2-4)c(S(=O)(=O)O)cc1S(=O)(=O)O [Dye C5]
∘ (ΔE<10 ∘)	∘ (ΔE<10 ∘)	∘	∘	O=C(O)c1cc(Oc2nc(Nc3cc(Nc4cc(S(=O)(=O)O)c5[nH]c(=O)c(C(=O)c6cccc(S(=O)(=O)O)c6)c6c5c4C(=O)c4ccccc4-6)c(S(=O)(=O)O)cc3S(=O)(=O)O)nc(Oc3cc(C(=O)O)cc(C(=O)O)c3)n2)cc(C(=O)O)c1 [Dye D1]
∘ (ΔE<10 ∘)	∘ (ΔE<10 ∘)	∘	∘	O=C(O)c1cc(Oc2nc(Nc3cc(Nc4cc(S(=O)(=O)O)c5[nH]c(=O)c(C(=O)c6cccc(S(=O)(=O)O)c6)c6c5c4C(=O)c4ccccc4-6)c(S(=O)(=O)O)cc3S(=O)(=O)O)nc(N(CCO)CCO)n2)cc(C(=O)O)c1 [Dye D2]
Δ (ΔE<20 Δ)	∘ (ΔE<10 ∘)	∘	∘	CN(c1nc(Oc2cc(C(=O)O)cc(C(=O)O)c2)nc(N(CCO)CCO)n1)c1cc(S(=O)(=O)O)c(Nc2cc(S(=O)(=O)O)c3[nH]c(=O)c(C(=O)c4cccc(S(=O)(=O)O)c4)c4c3c2C(=O)c2ccccc2-4)cc1S(=O)(=O)O [Dye D3]
Δ (ΔE<20 Δ)	∘ (ΔE<10 ∘)	∘	Δ	Cc1ccc(S(=O)(=O)Nc2cc(Nc3cc(S(=O)(=O)O)c4[nH]c(=O)c(C(=O)c5cccc(S(=O)(=O)O)c5)c5c4c3C(=O)c3ccccc3-5)c(S(=O)(=O)O)cc2S(=O)(=O)O)cc1 [Dye D4]
